Assay results from PubChem BioAssay AID1996.
In brackets after ≈: the same amount, converted by molar mass.

Conditions: buffer; pH 7.4; 200.0 µM

Structure (SMILES)	solubility kinetic
O=C(c1cc2ccccc2s1)N1CCOCC1	> 0.0371 mg/mL
CN1CCN(C(=O)c2cc(Br)cn2C)CC1	> 0.0429 mg/mL
N#C/C(=C(/O)CCl)c1nc(-c2ccccc2)cs1	0.0413 mg/mL (≈ 149 µM)
S=C(c1c[nH]c2ccccc12)N1CCOCC1	> 0.0369 mg/mL
CNC(=O)CSc1nc2cccnc2n1-c1ccc(F)cc1	0.0447 mg/mL (≈ 141 µM)
Cc1cc(C)cc(OCC(O)CN2CC(C)OC(C)C2)c1.Cl (centres undefined)	> 0.0495 mg/mL
O=C(CSc1nccc(=O)[nH]1)NCc1ccc2c(c1)OCO2	> 0.0479 mg/mL
CCN(CC)CCN=Cc1c(O)n(Cc2ccccc2)c(=O)[nH]c1=O	> 0.0517 mg/mL
C=CCn1c(O)c(C2=c3ccccc3=NC2=O)c2ccccc21	< 0.0003 mg/mL
CC#CC(=O)NC1CCCN(C2Cc3ccccc3C2)C1 (centres undefined)	> 0.0424 mg/mL
Cc1[nH]c(=O)c(C#N)c(C)c1Cl	0.026 mg/mL (≈ 142 µM)
O=c1c2c3c(sc2nc2n1CCCCC2)C(O)CCC3 (centres undefined)	> 0.0436 mg/mL
CCc1ccccc1NC(=O)c1ccc2c(c1)CCN2S(C)(=O)=O	0.0008 mg/mL (≈ 2.32 µM)
O=C(c1cc2cc(Br)ccc2[nH]1)N1CCc2ccccc21	< 0.0004 mg/mL
O=C1c2nccnc2C(=O)N1c1ccc(C(F)(F)F)cc1	0.0395 mg/mL (≈ 135 µM)
CCOC(=O)C1=C(O)/C(=C\c2ccc(O)c(OCC)c2)N=C1C	0.0361 mg/mL (≈ 114 µM)
Cc1nc([N+](=O)[O-])cn1CCC#N	> 0.027 mg/mL
FC(F)(F)c1cccc(NC(=S)N2CCCCCC2)c1	0.0223 mg/mL (≈ 73.8 µM)
COc1ccccc1CNC(=O)COC(=O)c1cc(=O)c2ccccc2o1	> 0.0551 mg/mL
Cc1csc2c(N3CCN(C(=O)NC(C)(C)C)CC3)ncnc12	> 0.05 mg/mL
CCOC(=O)CN1C(=O)S/C(=C\c2ccc(-c3cccc(C(=O)O)c3C)o2)C1=O	0.0569 mg/mL (≈ 137 µM)
CC1CCCCN1C(=S)NC(=O)c1cccs1 (centres undefined)	> 0.0403 mg/mL
CCn1c(=O)c(-c2nc3ccccc3[nH]2)c(O)c2ccccc21	< 0.0002 mg/mL
Cc1nc(NC(=O)COC(=O)CNC(=O)c2ccco2)c(Cl)cc1Cl	> 0.0579 mg/mL

Structure (SMILES)	solubility kinetic
COc1ccccc1OCC(O)CNCc1ccc2c(c1)OCO2 (centres undefined)	0.0474 mg/mL (≈ 143 µM)
CC(NC(=O)c1c(O)c2ccccc2n(C)c1=O)c1ccccc1 (centres undefined)	< 0.0003 mg/mL
O=C(Nc1nc2ccccc2s1)c1ccccc1[N+](=O)[O-]	0.0029 mg/mL (≈ 9.69 µM)
CCn1c(CNC(=O)C2CCCCC2)cc2ccccc21	0.0004 mg/mL (≈ 1.41 µM)
O=C(NCC(c1ccco1)N1CCCCC1)c1cccs1 (centres undefined)	> 0.0457 mg/mL
O=C(OCc1cncs1)c1ccccc1	> 0.0329 mg/mL
CCCCN(CC)Cc1c(C)[nH]c2c(ccc3ccccc32)c1=O	> 0.0484 mg/mL
CC1=C([N+](=O)[O-])C(c2ccc(Cl)cc2)NC(=O)N1C (centres undefined)	0.0304 mg/mL (≈ 108 µM)
CCC1Cc2c(nc(N)c3c(N)nc(N4CCOCC4)c(C#N)c23)O1 (centres undefined)	0.0089 mg/mL (≈ 26.1 µM)
CN1CCN(C(=O)c2ccc(C(F)(F)F)cc2)CC1.Cl	> 0.0463 mg/mL
O=C(O)CCc1nc2ccccc2c(=O)[nH]1	> 0.0327 mg/mL
COc1ccc(CNC(=O)CC2(CC(=O)O)CCCCC2)cc1	> 0.0479 mg/mL
Nc1[nH]c(=O)ncc1F	> 0.0194 mg/mL
O=C(COC(=O)c1cccnc1Cl)c1ccc(Cl)s1	> 0.0474 mg/mL
NC(=O)CCN1CCN(S(=O)(=O)/C=C/c2ccccc2)CC1	0.0424 mg/mL (≈ 131 µM)
CC(=O)Nc1ccc(S(=O)(=O)c2cc(O)ccc2O)cc1	> 0.0461 mg/mL
C#Cc1cccc(C(=O)N2CCCC(Nc3cccc(F)c3)C2)c1 (centres undefined)	0.0395 mg/mL (≈ 123 µM)
O=C(NCCN1CCCCC1)c1ccc(/C=N/O)nc1	0.0407 mg/mL (≈ 147 µM)
COc1ccc(/C=N/NC(=O)c2ccccc2O)cc1COc1ccccn1	> 0.0566 mg/mL
CCOC(=O)N1CCc2[nH]c3ccc(C)cc3c2C1	0.0159 mg/mL (≈ 61.6 µM)
CCOC(=O)N1CCN(C(c2cccnc2)c2ccc3cccnc3c2O)CC1 (centres undefined)	0.028 mg/mL (≈ 71.3 µM)
COC(=O)c1ccc(OCC(O)CNC2CCCC2)cc1.Cl (centres undefined)	0.0477 mg/mL
O=C(COC(=O)c1cccc(Cl)c1Cl)NC1CCCC1	0.0128 mg/mL (≈ 40.5 µM)
CN(CC(=O)NCCc1ccc(S(N)(=O)=O)cc1)CC(=O)Nc1ccc(Cl)cc1	> 0.0658 mg/mL

Structure (SMILES)	solubility kinetic
Nc1cc(S(=O)(=O)Nc2ccc(Cl)cc2)ccc1N1CCOCC1	> 0.0552 mg/mL
COC(=O)c1ccc(N)nc1	> 0.0228 mg/mL
CCOCCCNC(=O)/C(C#N)=C/c1ccc([N+](=O)[O-])o1	0.024 mg/mL (≈ 81.8 µM)
O=Cc1ccc(C(=O)OCC(=O)Nc2ccc(F)cc2F)cc1	0.0037 mg/mL (≈ 11.6 µM)
Cc1cc(NC(=O)C(Cl)(Cl)Cl)no1	0.0357 mg/mL (≈ 147 µM)
Cc1cc(/C=N/NC(N)=O)c(C)n1C1CCCCC1	> 0.0394 mg/mL
CCOc1ccc(NC(=O)CNC(=O)c2ccco2)cc1	> 0.0432 mg/mL
O=C(COC(=O)C1CCCCC1)NCc1ccc(Cl)cc1	0.0317 mg/mL (≈ 102 µM)
CCOC(=O)c1cnc(-c2ccc(C(F)(F)F)cn2)[nH]c1=O	0.0468 mg/mL (≈ 149 µM)
COc1cc2c(cc1OC)C(c1ccccc1Cl)N(C)CC2 (centres undefined)	0.0364 mg/mL (≈ 115 µM)
COc1ccc(S(=O)(=O)NC2CCCCCC2)c(OC)c1	0.0094 mg/mL (≈ 30 µM)
Cc1c(C)n(CCCN(C)C)c2ncnc(NCc3ccccc3)c12	> 0.0506 mg/mL
COc1cc2c(cc1OC)C(C)N(S(=O)(=O)c1cn(C)c(C)n1)CC2 (centres undefined)	> 0.0548 mg/mL
OCCN1c2ccccc2CCc2ccccc21	0.0215 mg/mL (≈ 89.8 µM)
COC(=O)c1ccccc1NC(=S)N1CCN(c2ccccc2)CC1	0.0134 mg/mL (≈ 37.7 µM)
Cc1c(Cl)cccc1NC(=S)NC(=O)c1cncc(Br)c1	0.0051 mg/mL (≈ 13.3 µM)
COC(CN(C)C(C(=O)NC1CCCCC1)c1ccccc1)OC (centres undefined)	> 0.0502 mg/mL
COc1ccccc1Nc1ncccc1[N+](=O)[O-]	0.0012 mg/mL (≈ 4.89 µM)
COc1ccc(Cl)cc1C(=O)Nc1ccncc1	> 0.0394 mg/mL
O=S(=O)(NCCC1=CCCCC1)c1ccc(F)cc1	0.0169 mg/mL (≈ 59.6 µM)
C=CCNC(=O)[C@H]1N2C(=O)c3ccccc3C2SC1(C)C (some centres undefined)	> 0.0454 mg/mL
CC(C)C(C(=O)Nc1ccncc1)c1ccc(Cl)cc1 (centres undefined)	> 0.0433 mg/mL
Nc1ccc2nc(SCc3ccccc3F)sc2c1	0.016 mg/mL (≈ 55.1 µM)
COc1ccc(C(=O)Nc2ccc3c(c2)n(C)c(=O)n3C)cc1OC	0.0084 mg/mL (≈ 24.6 µM)

Structure (SMILES)	solubility kinetic
CCNC(=S)/N=C(/Nc1ccccc1)Nc1nc(C)cc(C)n1	0.0008 mg/mL (≈ 2.44 µM)
CCCc1c(C)nc(-c2ccc(C)cc2)nc1OC(=O)N(C)C	0.0273 mg/mL (≈ 87.1 µM)
CC(=O)c1c(C)nc(Nc2nc(C)c3cc(C)ccc3n2)nc1C	> 0.0482 mg/mL
COc1ccc2c(c1OC)C(=O)N(c1cccc(/C=C/C(=O)O)c1)C2	> 0.0509 mg/mL
COc1cccc(NC(=O)c2ccccc2NC(=O)c2ccncc2)c1	0.0291 mg/mL (≈ 83.8 µM)
O=c1[nH]c(=O)n(-c2ccc(F)cc2)c(O)c1/C=C1\C=Nc2ccccc21	0.0019 mg/mL (≈ 5.44 µM)
O=C(COC(=O)CNC(=O)c1ccccc1F)NC1CC1	> 0.0441 mg/mL
COc1ccc(CN(C)C(=O)COC(=O)c2cnc(Cl)c(Cl)c2)cc1	0.0531 mg/mL (≈ 139 µM)
CCS(=O)(=O)c1ccc(O)c(NC(=O)c2ccc(S(=O)(=O)N3CCCCCC3)cc2)c1	0.0116 mg/mL (≈ 24.9 µM)
O=S(=O)(NC1CCCCC1)c1cccc2nsnc12	0.0316 mg/mL (≈ 106 µM)
O=C(Cc1ccccc1)NNC(=S)NC(=O)c1cccnc1	> 0.0472 mg/mL
O=C(c1ccco1)N1CCN(S(=O)(=O)c2cccc(Cl)c2)CC1	> 0.0532 mg/mL
O=C(NC(=O)c1ccccc1)Nc1ccccc1	0.0012 mg/mL (≈ 4.99 µM)
COc1ccc(NC(=O)COC(=O)C2CCC2)cc1Cl	0.0428 mg/mL (≈ 144 µM)
CCOC(=O)CN1C(=O)C(=O)N(Cc2ccccc2)C1=O	> 0.0435 mg/mL
O=C(NC1CCN(c2ncccn2)CC1)c1cccc(F)c1	0.0328 mg/mL (≈ 109 µM)
CCCc1ccc2oc(C(=O)N3CCC[C@H]3CO)c(C)c2c1	0.0418 mg/mL (≈ 139 µM)
COc1cc(C)c(NC(=O)C(=S)NCc2ccccc2)cc1C	< 0.0004 mg/mL
COC(=O)CN1C(=O)c2cccc3cccc1c23	> 0.0362 mg/mL
O=C(NCCCn1ccnc1)c1ccc(Cl)s1	> 0.0405 mg/mL
Cc1ccc(-c2nc(N)s[n+]2-c2ccccc2)cc1.[Br-]	0.021 mg/mL
CCNC(=O)NC(=O)CSc1ccc(S(=O)(=O)N2CCOCC2)cn1	0.0562 mg/mL (≈ 145 µM)
CCOc1ccc2nc(NC(=O)CN3CCN(CC)CC3)sc2c1	0.0476 mg/mL (≈ 137 µM)
CCOCCc1c(O)[nH]c(=S)[nH]c1=O	> 0.0324 mg/mL

Structure (SMILES)	solubility kinetic
COCCCn1c(=O)c2ccccc2n(CC(=O)NC2CCCC2)c1=O	> 0.0539 mg/mL
CCN(CC(=O)NCc1ccc2c(c1)OCO2)S(=O)(=O)c1ccc(F)cc1	0.0556 mg/mL (≈ 141 µM)
CN(CC(=O)Nc1cccc(F)c1)C(=O)C1=COCCO1	> 0.0441 mg/mL
O=C(COc1ccc(Cl)cc1)OCC(=O)N1CCOCC1	> 0.0471 mg/mL
O=C(CN1C(=O)NC(CCc2ccccc2)C1=O)Nc1ccccc1C(F)(F)F (centres undefined)	0.0052 mg/mL (≈ 12.8 µM)
CC(C)(C)C(=O)N1CCN(C(c2ccccc2)c2ccccc2)CC1	0.0283 mg/mL (≈ 84.1 µM)
COc1ccc(CNC(=O)c2cc(=O)c3cc(C)ccc3o2)cc1	< 0.0007 mg/mL
CCN(c1ccc(NC(=O)COC(=O)/C=C/c2ccco2)cc1)C(C)C	0.0245 mg/mL (≈ 68.7 µM)
CC(=O)C1=C(O)C(=O)N(c2ccc(O)cc2)C1c1ccc([N+](=O)[O-])cc1 (centres undefined)	> 0.0531 mg/mL
Cc1cc(C)c(C#N)c(Nc2cccc(C)c2C)n1	0.001 mg/mL (≈ 3.98 µM)
COCCN(CC(=O)Nc1cccc(C)c1C)C(=O)C1(c2ccc(Cl)cc2)CCC1	0.0338 mg/mL (≈ 78.8 µM)
Cc1cccc(NC(=O)CSc2nncn2-c2ccccn2)c1	> 0.0488 mg/mL
COC(=O)N1c2ccccc2C=Cc2ccccc21	> 0.0377 mg/mL
CCNc1c(NC(=O)c2cccs2)c(=O)oc2ccccc12	0.0045 mg/mL (≈ 14.3 µM)
COc1cccc(NC(=S)Nc2cc(C)cc(C)n2)c1	0.0003 mg/mL (≈ 1.04 µM)
CCCNC(=O)c1ccc2c(c1)S(=O)(=O)c1ccccc1C2=O	0.0079 mg/mL (≈ 24 µM)
COC(=O)CN=Cc1c(O)n(-c2ccc(Cl)cn2)c(=O)c2ccccc12	> 0.0558 mg/mL
O=C(Nc1cccc(O)c1)c1cc(-c2ccccc2Cl)on1	0.0008 mg/mL (≈ 2.54 µM)
Cc1ccc(S(=O)(=O)n2cc(C=O)c3ccccc32)cc1	< 0.0006 mg/mL
Cc1nnc(-c2ccc(N3CCOCC3)c([N+](=O)[O-])c2)o1	> 0.0435 mg/mL
COCCCNc1nc(N)c([N+](=O)[O-])c(NC2CCCCC2)n1	0.0028 mg/mL (≈ 8.63 µM)
Cc1ccc(S(=O)(=O)NCC(=O)OCC(=O)Nc2ccc(C)c(S(=O)(=O)N3CCOCC3)c2)cc1	> 0.0788 mg/mL
COc1ccc(C(=O)NCCN2CCOCC2)cc1[N+](=O)[O-]	> 0.0464 mg/mL
